Literature values as cited in publication PMC8491563 (Journal of controlled release : official journal of the …, 2020).

Test system: CCR2
Settings: in conjunction with nab-paclitaxel/gemcitabine, 21 treated patients

Compound: O=C(NCC(=O)N1CC[C@H](N[C@H]2CC[C@@](O)(c3ccc(-c4ncccn4)cn3)CC2)C1)c1cccc(C(F)(F)F)c1 [PF-04136309]
- patients responding with a reduction in tumor size compared to the baseline: 23.8%
